Measurements taken from ChEMBL document CHEMBL1201862, “PubChem BioAssay data set” (2004).
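Tested at 5 concentrations; 48 h exposure; 96-well plates; endpoints linearly interpolated, else capped at highest concentration. GI50 is the concentration that inhibits growth by half.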 Calls of active or inactive are those of the source. No stated cut-off is given here; in the data, active = GI50 up to about 1.1 µM and inactive = higher.

Assays:
Assay in all cases: NCI-60 cell line screen, 48 h
MCF7 = system: MCF7
OVCAR-8 = system: OVCAR-8
MDA-MB-435 = system: MDA-MB-435
DU-145 = system: DU-145
OVCAR-4 = system: OVCAR-4
786-0 = system: 786-0
NCI-H522 = system: NCI-H522
HCT-15 = system: HCT-15
Malme-3M = system: Malme-3M
UO-31 = system: UO-31
SNB-75 = system: SNB-75
SN12C = system: SN12C
IGROV-1 = system: IGROV-1
M14 = system: M14
SK-MEL-28 = system: SK-MEL-28
OVCAR-3 = system: OVCAR-3
NCI-H460 = system: NCI-H460
NCI-H226 = system: NCI-H226
K562 = system: K562

Row | SMILES | GI50 (MCF7) | GI50 (OVCAR-8) | GI50 (MDA-MB-435) | GI50 (DU-145) | GI50 (OVCAR-4) | GI50 (786-0) | GI50 (NCI-H522) | GI50 (HCT-15) [µM] | GI50 (Malme-3M) | GI50 (UO-31) | GI50 (SNB-75) | GI50 (SN12C) | GI50 (IGROV-1) | GI50 (M14) | GI50 (SK-MEL-28) | GI50 (OVCAR-3) | GI50 (NCI-H460) | GI50 (NCI-H226) | GI50 (K562)
1 | O=C(O)c1cc(/C=C/c2ccc(O)c(O)c2)ccc1O | 23.1 µM (inactive) | > 100 µM (inactive) | 77.8 µM (inactive) | > 100 µM (inactive) | > 100 µM (inactive) | > 100 µM (inactive) | > 100 µM (inactive) | > 100 | > 100 µM (inactive) | > 100 µM (inactive) | > 100 µM (inactive) | > 100 µM (inactive) | > 100 µM (inactive) | 45.8 µM (inactive) | > 100 µM (inactive) | > 100 µM (inactive) | > 100 µM (inactive) | > 100 µM (inactive) | 20.3 µM (inactive)
2 | O=C1Nc2ccccc2/C1=N/NS(=O)(=O)c1ccc(C(=O)O)cc1 | > 100 µM (inactive) | > 100 µM (inactive) | > 100 µM (inactive) | > 100 µM (inactive) | > 100 µM (inactive) | > 100 µM (inactive) | > 100 µM (inactive) | > 100 | > 100 µM (inactive) | > 100 µM (inactive) | > 100 µM (inactive) | > 100 µM (inactive) | > 100 µM (inactive) | > 100 µM (inactive) | > 100 µM (inactive) | > 100 µM (inactive) | > 100 µM (inactive) | > 100 µM (inactive) | > 100 µM (inactive)
3 | COc1cc(C2c3cc4c(cc3OC(NNC(N)=S)C2C)OCO4)cc(OC)c1OC (stereo not given) | 0.457 µM (active) | 0.411 µM (active) | 0.0425 µM (active) | 4.17 µM (inactive) | 41.3 µM (inactive) | 0.398 µM (active) | 0.303 µM (active) | 0.451 | 0.53 µM (active) | 0.931 µM (active) | 71.3 µM (inactive) | 1.03 µM (active) | 0.441 µM (active) | 0.351 µM (active) | 0.524 µM (active) | 0.349 µM (active) | 0.376 µM (active) | 0.721 µM (active) | 0.242 µM (active)
4 | CN(CC(=O)O)c1ncc2c(n1)C=CCC2 | > 100 µM (inactive) | > 100 µM (inactive) | > 100 µM (inactive) | > 100 µM (inactive) | > 100 µM (inactive) | > 100 µM (inactive) | > 100 µM (inactive) | > 100 | > 100 µM (inactive) | > 100 µM (inactive) | > 100 µM (inactive) | > 100 µM (inactive) | > 100 µM (inactive) | > 100 µM (inactive) | > 100 µM (inactive) | > 100 µM (inactive) | > 100 µM (inactive) | > 100 µM (inactive) | > 100 µM (inactive)
5 | CN1CCOC1(C)c1ccccc1 (stereo not given) | > 100 µM (inactive) | > 100 µM (inactive) | > 100 µM (inactive) | > 100 µM (inactive) | > 100 µM (inactive) | > 100 µM (inactive) | > 100 µM (inactive) | > 100 | > 100 µM (inactive) | > 100 µM (inactive) | > 100 µM (inactive) | > 100 µM (inactive) | > 100 µM (inactive) | > 100 µM (inactive) | > 100 µM (inactive) | > 100 µM (inactive) | > 100 µM (inactive) | > 100 µM (inactive) | > 100 µM (inactive)
6 | Cn1c2ccccc2n2c3ccccc3c3nnc(N)c-3c12 | 19.2 µM (inactive) | 8.18 µM (inactive) | > 88.7 µM (inactive) | 33.7 µM (inactive) | 41 µM (inactive) | 0.847 µM (active) | 8.53 µM (inactive) | > 100 | 10.5 µM (inactive) | > 100 µM (inactive) | 1.95 µM (inactive) | 0.757 µM (active) | > 100 µM (inactive) | > 95.3 µM (inactive) | > 81.3 µM (inactive) | 28.2 µM (inactive) | > 60.4 µM (inactive) | > 93.1 µM (inactive) | > 65.8 µM (inactive)
7 | CC(=O)N1C(c2[nH]c3ccccc3c2Cc2ccccc2)CCN1c1ccccc1 (stereo not given) | 8.45 µM (inactive) | > 10 µM (inactive) | 9.06 µM (inactive) | > 10 µM (inactive) | > 10 µM (inactive) | > 10 µM (inactive) | 8.47 µM (inactive) | > 10 | > 10 µM (inactive) | 8.73 µM (inactive) | 5.83 µM (inactive) | > 10 µM (inactive) | > 10 µM (inactive) | 7.93 µM (inactive) | > 10 µM (inactive) | > 10 µM (inactive) | 5.22 µM (inactive) | > 10 µM (inactive) | 3.05 µM (inactive)
8 | CC(=O)N1NC(c2ccccc2)=NC(=O)C1c1cc(C)c(O)c(C)c1 (stereo not given) | 21.2 µM (inactive) | 17.6 µM (inactive) | 64.4 µM (inactive) | 22.7 µM (inactive) | 19.8 µM (inactive) | 17.3 µM (inactive) | 17.8 µM (inactive) | 40 | 17.7 µM (inactive) | 21.7 µM (inactive) | 19.9 µM (inactive) | 27.5 µM (inactive) | 26.9 µM (inactive) | 71.9 µM (inactive) | 54.6 µM (inactive) | 19.2 µM (inactive) | 31.1 µM (inactive) | 23.9 µM (inactive) | > 100 µM (inactive)
9 | CC(NNC(=O)c1ccncc1)c1ccc(Cl)cc1Cl (stereo not given) | > 100 µM (inactive) | > 100 µM (inactive) | > 100 µM (inactive) | > 100 µM (inactive) | > 100 µM (inactive) | > 100 µM (inactive) | > 100 µM (inactive) | 65.6 | > 100 µM (inactive) | 38.9 µM (inactive) | > 100 µM (inactive) | > 100 µM (inactive) | > 100 µM (inactive) | > 100 µM (inactive) | > 100 µM (inactive) | > 100 µM (inactive) | 51.2 µM (inactive) | > 100 µM (inactive) | > 100 µM (inactive)
10 | COC(=O)/C=C1\C(=O)N(C(C)=O)c2ccccc21 | 3.64 µM (inactive) | 17.4 µM (inactive) | 11.3 µM (inactive) | 9.86 µM (inactive) | 5.25 µM (inactive) | 4.9 µM (inactive) | 3.35 µM (inactive) | 6.19 | 13.5 µM (inactive) | 12.9 µM (inactive) | 12.5 µM (inactive) | 6.22 µM (inactive) | 7.87 µM (inactive) | 13.2 µM (inactive) | 12.3 µM (inactive) | 7.67 µM (inactive) | 10.5 µM (inactive) | 12.4 µM (inactive) | 5.61 µM (inactive)
11 | CCN(c1cccc(NC(=S)Nc2ccccc2N(CC)c2cc(-c3ccccc3)no2)c1)c1cc(-c2ccccc2)no1 | > 100 µM (inactive) | > 100 µM (inactive) | > 100 µM (inactive) | > 100 µM (inactive) | > 100 µM (inactive) | > 100 µM (inactive) | > 100 µM (inactive) | > 100 | > 100 µM (inactive) | > 100 µM (inactive) | > 100 µM (inactive) | > 100 µM (inactive) | > 100 µM (inactive) | > 100 µM (inactive) | > 100 µM (inactive) | > 100 µM (inactive) | > 100 µM (inactive) | > 100 µM (inactive) | > 100 µM (inactive)
12 | O=[N+]([O-])c1cccc2nc3ccccc3c(NCCCCNc3c4ccccc4nc4cccc([N+](=O)[O-])c34)c12 | 0.0216 µM (active) | < 0.01 µM (active) | 0.0489 µM (active) | 0.0232 µM (active) | 0.0948 µM (active) | 0.0164 µM (active) | 0.0214 µM (active) | 0.0204 | 0.0766 µM (active) | 0.129 µM (active) | 0.0859 µM (active) | 0.0414 µM (active) | 0.118 µM (active) | 0.0389 µM (active) | 0.164 µM (active) | 0.0395 µM (active) | 0.0143 µM (active) | 0.144 µM (active) | < 0.0216 µM (active)
13 | O=C1CCSC(=S)N1c1ccc(Br)c(Cl)c1 | 17.9 µM (inactive) | 30.5 µM (inactive) | 26.8 µM (inactive) | 43.8 µM (inactive) | 22.2 µM (inactive) | 24.4 µM (inactive) | 21 µM (inactive) | 20.4 | 22.9 µM (inactive) | 30.2 µM (inactive) | 25.5 µM (inactive) | 41.2 µM (inactive) | 24.8 µM (inactive) | 58.1 µM (inactive) | 17.7 µM (inactive) | 37.6 µM (inactive) | 21.8 µM (inactive) | 27.3 µM (inactive) | 32.9 µM (inactive)
14 | FC(F)(F)C1(C(F)(F)F)O[Si]2(OC(C(F)(F)F)(C(F)(F)F)c3ccccc32)c2ccccc21 | 14.4 µM (inactive) | 8.75 µM (inactive) | 11.3 µM (inactive) | 15.4 µM (inactive) | 11.4 µM (inactive) | 12.7 µM (inactive) | 7.53 µM (inactive) | 17 | 9.46 µM (inactive) | 9.12 µM (inactive) | 14.6 µM (inactive) | 9.02 µM (inactive) | 16.3 µM (inactive) | 13.2 µM (inactive) | 12 µM (inactive) | 16.5 µM (inactive) | 5.98 µM (inactive) | 4.53 µM (inactive) | 10.3 µM (inactive)
15 | CC(=O)NC1=C(C)C(=O)c2c(nc3n2CCC3OC(=O)c2ccccc2)C1=N (stereo not given) | 0.755 µM (active) | 1.04 µM (active) | 0.166 µM (active) | 1.97 µM (inactive) | 0.518 µM (active) | 1.93 µM (inactive) | 3.83 µM (inactive) | 2.72 | 1.13 µM (inactive) | 2.04 µM (inactive) | 2.37 µM (inactive) | 1.72 µM (inactive) | 1.74 µM (inactive) | 1.01 µM (active) | 1.8 µM (inactive) | 0.552 µM (active) | 1.99 µM (inactive) | 4.24 µM (inactive) | 1.79 µM (inactive)
